# How the values were obtained:
# [1] = target: T1, Recombinant human LOXL2 (lysyl oxidase like 2) (Homo sapiens, UniProt Q9Y4K0); assay: LOXL2 inhibition assay (fluorometric, cadaverine/Amplex Red/HRP); format: biochemical; conditions: IC50 class; recombinant human LOXL2, cadaverine substrate; read-out: Activity Range LOXL2
# T1 construct: purchased R&D systems
# T1 sequence (Q9Y4K0 26-774): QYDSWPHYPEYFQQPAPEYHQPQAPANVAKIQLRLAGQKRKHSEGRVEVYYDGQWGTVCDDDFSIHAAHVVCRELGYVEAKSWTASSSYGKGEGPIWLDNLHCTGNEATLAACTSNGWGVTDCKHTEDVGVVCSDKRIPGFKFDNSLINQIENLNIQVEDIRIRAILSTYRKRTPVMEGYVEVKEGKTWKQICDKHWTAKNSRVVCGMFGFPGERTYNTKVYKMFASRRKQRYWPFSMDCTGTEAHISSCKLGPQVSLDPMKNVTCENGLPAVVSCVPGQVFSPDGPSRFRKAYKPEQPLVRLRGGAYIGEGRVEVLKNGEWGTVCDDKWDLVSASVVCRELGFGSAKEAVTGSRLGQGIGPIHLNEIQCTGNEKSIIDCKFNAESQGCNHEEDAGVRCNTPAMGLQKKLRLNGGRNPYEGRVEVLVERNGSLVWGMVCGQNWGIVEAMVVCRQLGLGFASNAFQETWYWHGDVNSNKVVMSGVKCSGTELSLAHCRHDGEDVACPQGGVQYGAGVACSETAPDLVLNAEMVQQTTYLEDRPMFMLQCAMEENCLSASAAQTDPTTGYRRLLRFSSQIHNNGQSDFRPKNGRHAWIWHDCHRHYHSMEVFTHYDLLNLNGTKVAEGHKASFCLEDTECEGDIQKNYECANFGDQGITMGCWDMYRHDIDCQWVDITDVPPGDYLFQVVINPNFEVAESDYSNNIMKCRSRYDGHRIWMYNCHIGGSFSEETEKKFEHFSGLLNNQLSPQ
# Procedure: (§1) The ability of compounds to inhibit one or more of the lysyl oxidases LOXL2 and/or LOXL3 was determined using a fluorometric assay. This assay measures the activity of lysyl oxidases by coupling the reaction with horseradish peroxidase-catalyzed […]. The activity assay protocol uses cadaverine as substrate that releases hydrogen peroxide upon transformation by the specific LOX family enzyme present in the sample. Hydrogen peroxide is in turn detected using a red fluorescence substrate for HRP-coupled reactions (Amplex Red Enzyme Assays, Thermo Scientific Fisher). This leads to increase in fluorescence that can be easily detected at Ex/Em=540/590 nm in a fluorescence microplate reader.
# Enzymes: Recombinant human LOXL2 (lysyl oxidase like 2) and recombinant human LOXL3 (lysyl oxidase like 3) were purchased from R&D systems and assays were performed in 1.2 M urea, 50 mM sodium borate buffer pH 8.0, and 10 mM CaCl.
# Reaction: Final concentration in the LOXL2 and LOXL3 assays were as following and performed in a total volume of […]:
# Experimental procedure: 5 μl of freshly prepared reaction buffer were delivered to reaction wells. Compounds were resuspended in 100% DMSO at 10 mM and delivered into buffer using acoustic technology (Echo550; nanoliter range). A 3× solution of LOXL2 or LOXL3 in reaction buffer was prepared (“enzyme solution”) and 5 μL of enzyme solution was added into the reaction wells. Buffer only was added to column 1 for no protein control. Reactions were incubated for 30 minutes at 37° C. A 3×mixture of cadaverine, Amplex Red, and HRP (“Substrate/Detection Mix) was prepared and subsequently 5 μL of the mixture added to each reaction well. Progress of reactions was monitored for 60 minutes at 37° C. using Clariostar plate reader (ex 530-12, ems 600-40). For all activity assays, pan-LOX inhibitor CCT365623 (Tang et al, 2017) and LOXL2/LOXL3 inhibitor PAT-1251 (PharmaKea) were included as standards.
# Data analysis: Slope of the linear portion of the progress curve was calculated using Clariostar software. Typical analysis interval was between 8-30 min, but varied between experiments. The background subtracted signals (No protein wells are considered as background) were converted to % activity relative to DMSO controls. Data was analyzed using GraphPad Prism 4 with “sigmoidal dose-response (variable slope)”; 4 parameters with Hill Slope. Constraints: Bottom=Constant equal to 0. Top=Must be less than 120.
# [2] = target: T2, Bovine lysyl oxidase (LOX) (Bos taurus, UniProt P33072); assay: LOX inhibition assay (fluorometric, cadaverine/Amplex Red/HRP); format: biochemical; conditions: IC50 class; bovine tendon LOX, cadaverine substrate; read-out: Activity Range LOX
# T2 construct: from tissue; host or cells: adult bovine tendon
# T2 sequence (P33072 170-418): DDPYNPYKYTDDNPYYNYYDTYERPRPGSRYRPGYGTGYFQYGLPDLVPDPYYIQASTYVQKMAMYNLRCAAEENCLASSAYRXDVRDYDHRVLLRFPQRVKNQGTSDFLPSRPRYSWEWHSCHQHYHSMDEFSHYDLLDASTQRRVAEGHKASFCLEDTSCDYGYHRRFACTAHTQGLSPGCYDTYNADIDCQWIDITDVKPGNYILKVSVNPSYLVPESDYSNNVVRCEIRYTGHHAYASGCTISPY
# Procedure: as §1, with “prototypic LOX” for “one or more of the lysyl oxidases LOXL2 and/or LOXL3”, “prototypic” for “the specific”, “LOX” for “LOX family”
# Enzyme: Bovine lysyl oxidase (LOX) was extracted by adapting the methodology from [Kagan et al. 1979 and Borel et al. 2001.] from bovine tendon: Frozen adult bovine tendon was placed in room temperature water to defrost, and then membranes were removed and the remaining tissue cut into 1 cm pieces. The material was first passed through a course mesh meat grinder, and this mince was passed through a fine mesh grinder. The mince was homogenized in 10 v/w of buffer (16 mM sodium phosphate buffer pH 7.8, 400 mM NaCl) using a Waring blender. The homogenate was centrifuged at 15,000×g for 15 min at 4° C. After centrifugation, the supernatant was discarded and the pellets resuspended in 10 volumes of the same buffer. The mixture was blended again and centrifuged with the same settings. This time the pellets were blended in 3 volumes of extraction buffer (16 mM sodium phosphate buffer pH 7.8) and left to incubate at 4° C. for 2 h. After this time, the slurry was centrifuged with the same settings as described above. The supernatant was used in an ultrafiltration step to remove large proteins by size exclusion through a 30 kDalton filter (EMD Millipore). The filtrate was mixed with DEAE Sephadex (GE Healthcare), or passed over a MonoQ FPLC column. After two washes, one in 16 mM sodium phosphate buffer pH 7.8, 380 mM NaCl, and another in 16 mM sodium phosphate buffer pH 7.8, the proteins were eluted with 16 mM sodium phosphate pH 7.8, 10 μM CuSO4, and 4 M urea. Fractions containing Lox activity were collected and stored frozen at −70° C.
# Reaction: Final concentration in the LOX assay was as following and performed in a total volume of […]:
# Experimental procedure: 7 μl of freshly prepared reaction buffer were delivered to reaction wells. Compounds were resuspended in 100% DMSO at 10 mM and delivered into buffer using acoustic technology (Echo550; nanoliter range). A 2.85× solution of LOX protein in reaction buffer was prepared (“LOX solution”) and 7 μl of LOX solution was added into the reaction wells. Buffer only was added to column 1 for no protein control. Reactions were incubated for 30 minutes at 37° C. A 3.33× mixture of cadaverine, Amplex Red, and HRP (“Substrate/Detection Mix) was prepared and subsequently 6 μL of the mixture was added to each reaction well. Progress of reactions was monitored for 120 minutes at 37° C. using Clariostar plate reader (ex530-12, ems 600-40). For all activity assays, pan-LOX inhibitor CCT365623 (Tang et al, 2017) and LOXL2/LOXL3 inhibitor PAT-1251 (PharmaKea) were included as standards.
# Data analysis: Slope of the linear portion of the progress curve was calculated using Clariostar software. Typical analysis interval was between 20-50 min, but varied between experiments. The background subtracted signals (No protein wells were considered as background) were converted to % activity relative to DMSO controls. Data was analyzed using GraphPad Prism 4 with “sigmoidal dose-response (variable slope)”; 4 parameters with Hill Slope. Constraints: Bottom=Constant equal to 0. Top=Must be less than 120.
Compound,IC50 [1],IC50 [2]
NCc1cccc(S(=O)(=O)N2C[C@H](C(=O)N3CCOCC3)C[C@@H](C(F)(F)F)C2)c1 (racemic) [Example 110],1000 to 30000 nM,> 30000 nM
"NCc1cnc(S(=O)(=O)N2C[C@@H](C(=O)N3CCOCC3)C[C@@H](c3ccccc3)C2)s1 (racemic) [Example 111, cis-(1-((5-(Aminomethyl)thiazol-2-yl)sulfonyl)-5-phenylpiperidin-3-yl)(morpholino)methanone 2,2,2-trifluoroacetate]",500 to 1000 nM,> 30000 nM
"CS(=O)(=O)N1CCN(C(=O)[C@@H]2C[C@@H](c3ccccc3)CN(S(=O)(=O)c3ncc(CN)s3)C2)CC1 (racemic) [Example 113T, trans-(1-((5-(Aminomethyl)thiazol-2-yl)sulfonyl)-5-phenylpiperidin-3-yl)(4-(methylsulfonyl)piperazin-1-yl)methanone 2,2,2-trifluoroacetate]",≤ 500 nM,1000 to 30000 nM
"CS(=O)(=O)N1CCN(C(=O)[C@@H]2C[C@@H](c3ccccc3)CN(S(=O)(=O)c3cccc(CN)n3)C2)CC1 (racemic) [Example 116T, trans-(1-((6-(Aminomethyl)pyridin-2-yl)sulfonyl)-5-phenylpiperidin-3-yl)(4-(methylsulfonyl)piperazin-1-yl)methanone 2,2,2-trifluoroacetate]",1000 to 30000 nM,> 30000 nM
"NCc1cc(S(=O)(=O)N2C[C@@H](C(=O)N3CCS(=O)(=O)CC3)C[C@@H](c3ccccc3)C2)ccn1 (racemic) [Example 130, cis-(1-((2-(Aminomethyl)pyridin-4-yl)sulfonyl)-5-phenylpiperidin-3-yl)(1,1-dioxidothiomorpholino)methanone 2,2,2-trifluoroacetate]",500 to 1000 nM,1000 to 30000 nM

# More lines, now with the values ahead:
IC50 [1],IC50 [2],Compound
> 30000 nM,> 30000 nM,"CC(N)c1cccc(S(=O)(=O)N2C[C@H](C(=O)N3CCOCC3)C[C@@H](c3ccccc3)C2)c1 (mixture of isomers) [Example 102TR, trans-(1-((3-(1-Aminoethyl)phenyl)sulfonyl)-5-phenylpiperidin-3-yl)(morpholino)methanone 2,2,2-trifluoroacetate]"
> 30000 nM,> 30000 nM,"CC(N)c1cccc(S(=O)(=O)N2C[C@H](C(=O)N3CCS(=O)(=O)CC3)C[C@@H](c3ccccc3)C2)c1 (mixture of isomers) [Example 106, trans-(1-((3-(1-Aminoethyl)phenyl)sulfonyl)-5-phenylpiperidin-3-yl) (1,1-dioxidothiomorpholino)methanone 2,2,2-trifluoroacetate]"
≤ 500 nM,1000 to 30000 nM,"NCc1cnc(S(=O)(=O)N2C[C@@H](C(=O)N3CCS(=O)(=O)CC3)C[C@@H](c3ccccc3)C2)s1 (racemic) [Example 112, cis-(1-((5-(Aminomethyl)thiazol-2-yl)sulfonyl)-5-phenylpiperidin-3-yl)(1,1-dioxidothiomorpholino)methanone 2,2,2-trifluoroacetate]"
500 to 1000 nM,1000 to 30000 nM,"NCc1cnc(S(=O)(=O)N2C[C@H](C(=O)N3CCS(=O)(=O)CC3)C[C@@H](c3ccccc3)C2)s1 (racemic) [Example 112T, trans-(1-((5-(Aminomethyl)thiazol-2-yl)sulfonyl)-5-phenylpiperidin-3-yl)(1,1-dioxidothiomorpholino)methanone 2,2,2-trifluoroacetate]"
≤ 500 nM,1000 to 30000 nM,"CS(=O)(=O)N1CCN(C(=O)[C@H]2C[C@@H](c3ccccc3)CN(S(=O)(=O)c3ncc(CN)s3)C2)CC1 (racemic) [Example 113, cis-(1-((5-(Aminomethyl)thiazol-2-yl)sulfonyl)-5-phenylpiperidin-3-yl)(4-(methylsulfonyl)piperazin-1-yl)methanone 2,2,2-trifluoroacetate]"
1000 to 30000 nM,> 30000 nM,CS(=O)(=O)N1CCN(C(=O)[C@H]2C[C@@H](c3ccccc3)CN(S(=O)(=O)c3cccc(CN)n3)C2)CC1 (racemic) [Example 116]
≤ 500 nM,≤ 500 nM,"NCc1ccc(S(=O)(=O)N2C[C@@H](C(=O)N3CCS(=O)(=O)CC3)C[C@@H](C3CCCCC3)C2)s1 (racemic) [Example 121, cis-(1-((5-(Aminomethyl)thiophen-2-yl)sulfonyl)-5-cyclohexylpiperidin-3-yl)(1,1-dioxidothiomorpholino)methanone 2,2,2-trifluoroacetate]"

# Reference: patent US20230310445A1, “LOX ENZYME INHIBITING METHODS AND COMPOSITIONS” (ANOVIA BIOSCIENCES, INC., priority 2020, published 2023)
